Measured values from the NIST ThermoML archive (doi:10.1016/j.jct.2015.04.024).
± gives the expanded uncertainty stated by the source.

Assay: mn = molality of the nth substance listed, in mol/kg
Details: 75 kPa, Liquid, Buoyancy - hydrostatic balance with magnetic suspension - one sinker

CCC(N)C(=O)O (stereo not drawn) [(.+-.)-α-aminobutyric acid] + O
Details	mass density [kg/m3]
275.63 K, m1 = 0.03017	1000.84 ± 0.16
275.63 K, m1 = 0.03851	1001.09 ± 0.16
275.63 K, m1 = 0.04794	1001.36 ± 0.16
275.63 K, m1 = 0.06041	1001.72 ± 0.16
275.63 K, m1 = 0.072	1002.07 ± 0.16
275.63 K, m1 = 0.07612	1002.18 ± 0.16
275.63 K, m1 = 0.08971	1002.58 ± 0.16
275.63 K, m1 = 0.0967	1002.78 ± 0.16
276.13 K, m1 = 0.03035	1000.85 ± 0.16
276.13 K, m1 = 0.03896	1001.1 ± 0.16
276.13 K, m1 = 0.04967	1001.42 ± 0.16
276.13 K, m1 = 0.05823	1001.67 ± 0.16
276.13 K, m1 = 0.07075	1002.03 ± 0.16
276.13 K, m1 = 0.08046	1002.31 ± 0.16
276.13 K, m1 = 0.0901	1002.6 ± 0.16
276.13 K, m1 = 0.0968	1002.78 ± 0.16
276.69 K, m1 = 0.0256	1000.72 ± 0.16
276.69 K, m1 = 0.03484	1000.99 ± 0.16
276.69 K, m1 = 0.04383	1001.25 ± 0.16
276.69 K, m1 = 0.05138	1001.47 ± 0.16
276.69 K, m1 = 0.06131	1001.77 ± 0.16
276.69 K, m1 = 0.06872	1001.99 ± 0.16
276.69 K, m1 = 0.0783	1002.24 ± 0.16
276.69 K, m1 = 0.08694	1002.51 ± 0.16
277.12 K, m1 = 0.03035	1000.86 ± 0.16
277.12 K, m1 = 0.03896	1001.12 ± 0.16
277.12 K, m1 = 0.04967	1001.42 ± 0.16
277.12 K, m1 = 0.05823	1001.68 ± 0.16
277.12 K, m1 = 0.07075	1002.04 ± 0.16
277.12 K, m1 = 0.08046	1002.31 ± 0.16
277.12 K, m1 = 0.0901	1002.6 ± 0.16
277.12 K, m1 = 0.0968	1002.79 ± 0.16
277.67 K, m1 = 0.0256	1000.71 ± 0.16
277.67 K, m1 = 0.03484	1000.99 ± 0.16
277.67 K, m1 = 0.04383	1001.25 ± 0.16
277.67 K, m1 = 0.05138	1001.47 ± 0.16
277.67 K, m1 = 0.06131	1001.76 ± 0.16
277.67 K, m1 = 0.06872	1001.99 ± 0.16
277.67 K, m1 = 0.0783	1002.25 ± 0.16
277.67 K, m1 = 0.08694	1002.51 ± 0.16
278.12 K, m1 = 0.03122	1000.86 ± 0.16
278.12 K, m1 = 0.04081	1001.16 ± 0.16
278.12 K, m1 = 0.04913	1001.38 ± 0.16
278.12 K, m1 = 0.05983	1001.72 ± 0.16
278.12 K, m1 = 0.07098	1002.05 ± 0.16
278.12 K, m1 = 0.08031	1002.3 ± 0.16
278.12 K, m1 = 0.09051	1002.6 ± 0.16
278.12 K, m1 = 0.09974	1002.85 ± 0.16
278.65 K, m1 = 0.0312	1000.86 ± 0.16
278.65 K, m1 = 0.04081	1001.12 ± 0.16
278.65 K, m1 = 0.04913	1001.35 ± 0.16
278.65 K, m1 = 0.05983	1001.67 ± 0.16
278.65 K, m1 = 0.07098	1002 ± 0.16
278.65 K, m1 = 0.08031	1002.27 ± 0.16
278.65 K, m1 = 0.09051	1002.57 ± 0.16
278.65 K, m1 = 0.0997	1002.85 ± 0.16
